Assay results as given in patent publication US20260356819A1, “OXOISOINDOLINYL-SUBSTITUTED […] DERIVATIVE AND USE THEREOF” (GLUETACS THERAPEUTICS (SHANGHAI) CO., LTD., priority 2023, published 2026).

Legend:
Assay type in all cases: cell-based
Settings in all cases: compounds at 50 nM and 500 nM
[1] = target: T1, CK1α (Homo sapiens, UniProt P48729+Q96SW2); assay: Western blot degradation of CK1α in hPBMCs (24 h)
T1 construct: The supernatant was aspirated as the extracted total cell protein; endogenous in cells; host or cells: human peripheral blood mononuclear cells (hPBMCs)
Procedure, shortened: (§1)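 Western blot densitometry after 24 h treatment of human PBMCs (1×10^6 cells/mL) with 50 nM or 500 nM compound. Remaining target (%) = band intensity over internal-control band, normalized to DMSO; degradation = 1 − remaining; DC50 is the concentration giving half the DMSO band signal.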

[2] = target: T2, IKZF3 (Homo sapiens, UniProt Q96SW2+Q9UKT9); assay: Western blot degradation of IKZF3 in hPBMCs (24 h)
T2 construct: The supernatant was aspirated as the extracted total cell protein; endogenous in cells; host or cells: human peripheral blood mononuclear cells (hPBMCs)
Procedure, shortened: as §1

[3] = target: T3, IKZF2 (Homo sapiens, UniProt Q96SW2+Q9UKS7); assay: Western blot degradation of IKZF2 in hPBMCs (24 h)
T3 construct: The supernatant was aspirated as the extracted total cell protein; endogenous in cells; host or cells: human peripheral blood mononuclear cells (hPBMCs)
Procedure, shortened: as §1

[4] = target: T4, IKZF1 (Homo sapiens, UniProt Q13422+Q96SW2); assay: Western blot degradation of IKZF1 in hPBMCs (24 h)
T4 construct: The supernatant was aspirated as the extracted total cell protein; endogenous in cells; host or cells: human peripheral blood mononuclear cells (hPBMCs)
Procedure, shortened: as §1

[5] = target: T5, GSPT1 (Homo sapiens, UniProt P15170+Q96SW2); assay: Western blot degradation of GSPT1 in hPBMCs (24 h)
T5 construct: The supernatant was aspirated as the extracted total cell protein; endogenous in cells; host or cells: human peripheral blood mononuclear cells (hPBMCs)
Procedure, shortened: as §1

[6] = target: T6, WEE1 (Homo sapiens, UniProt P30291+Q96SW2); assay: Western blot degradation of WEE1 in hPBMCs (24 h)
T6 construct: The supernatant was aspirated as the extracted total cell protein; endogenous in cells; host or cells: human peripheral blood mononuclear cells (hPBMCs)
Procedure, shortened: as §1

T1 sequence (P48729 whole entry): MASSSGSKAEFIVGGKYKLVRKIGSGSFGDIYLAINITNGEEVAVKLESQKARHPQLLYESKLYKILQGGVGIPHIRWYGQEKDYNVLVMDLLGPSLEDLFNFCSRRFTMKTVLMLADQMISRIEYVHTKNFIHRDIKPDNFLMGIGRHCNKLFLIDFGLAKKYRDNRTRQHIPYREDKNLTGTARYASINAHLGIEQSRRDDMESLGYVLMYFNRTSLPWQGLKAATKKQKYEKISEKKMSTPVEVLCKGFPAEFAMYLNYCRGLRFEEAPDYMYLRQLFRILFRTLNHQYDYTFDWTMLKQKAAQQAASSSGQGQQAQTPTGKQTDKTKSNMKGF
T1 sequence (Q96SW2 whole entry): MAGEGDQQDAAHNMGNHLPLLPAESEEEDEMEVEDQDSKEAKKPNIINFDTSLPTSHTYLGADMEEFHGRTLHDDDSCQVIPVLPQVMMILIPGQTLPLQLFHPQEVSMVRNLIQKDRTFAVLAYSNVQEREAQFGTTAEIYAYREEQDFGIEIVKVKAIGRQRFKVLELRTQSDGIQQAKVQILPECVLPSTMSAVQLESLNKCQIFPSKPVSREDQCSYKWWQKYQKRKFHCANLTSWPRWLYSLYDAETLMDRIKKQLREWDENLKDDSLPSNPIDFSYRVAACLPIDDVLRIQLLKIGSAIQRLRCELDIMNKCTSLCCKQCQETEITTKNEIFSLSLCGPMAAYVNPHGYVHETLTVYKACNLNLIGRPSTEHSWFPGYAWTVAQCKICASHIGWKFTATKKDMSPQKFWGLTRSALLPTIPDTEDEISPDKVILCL
T1 sequence (Q16531 whole entry partner): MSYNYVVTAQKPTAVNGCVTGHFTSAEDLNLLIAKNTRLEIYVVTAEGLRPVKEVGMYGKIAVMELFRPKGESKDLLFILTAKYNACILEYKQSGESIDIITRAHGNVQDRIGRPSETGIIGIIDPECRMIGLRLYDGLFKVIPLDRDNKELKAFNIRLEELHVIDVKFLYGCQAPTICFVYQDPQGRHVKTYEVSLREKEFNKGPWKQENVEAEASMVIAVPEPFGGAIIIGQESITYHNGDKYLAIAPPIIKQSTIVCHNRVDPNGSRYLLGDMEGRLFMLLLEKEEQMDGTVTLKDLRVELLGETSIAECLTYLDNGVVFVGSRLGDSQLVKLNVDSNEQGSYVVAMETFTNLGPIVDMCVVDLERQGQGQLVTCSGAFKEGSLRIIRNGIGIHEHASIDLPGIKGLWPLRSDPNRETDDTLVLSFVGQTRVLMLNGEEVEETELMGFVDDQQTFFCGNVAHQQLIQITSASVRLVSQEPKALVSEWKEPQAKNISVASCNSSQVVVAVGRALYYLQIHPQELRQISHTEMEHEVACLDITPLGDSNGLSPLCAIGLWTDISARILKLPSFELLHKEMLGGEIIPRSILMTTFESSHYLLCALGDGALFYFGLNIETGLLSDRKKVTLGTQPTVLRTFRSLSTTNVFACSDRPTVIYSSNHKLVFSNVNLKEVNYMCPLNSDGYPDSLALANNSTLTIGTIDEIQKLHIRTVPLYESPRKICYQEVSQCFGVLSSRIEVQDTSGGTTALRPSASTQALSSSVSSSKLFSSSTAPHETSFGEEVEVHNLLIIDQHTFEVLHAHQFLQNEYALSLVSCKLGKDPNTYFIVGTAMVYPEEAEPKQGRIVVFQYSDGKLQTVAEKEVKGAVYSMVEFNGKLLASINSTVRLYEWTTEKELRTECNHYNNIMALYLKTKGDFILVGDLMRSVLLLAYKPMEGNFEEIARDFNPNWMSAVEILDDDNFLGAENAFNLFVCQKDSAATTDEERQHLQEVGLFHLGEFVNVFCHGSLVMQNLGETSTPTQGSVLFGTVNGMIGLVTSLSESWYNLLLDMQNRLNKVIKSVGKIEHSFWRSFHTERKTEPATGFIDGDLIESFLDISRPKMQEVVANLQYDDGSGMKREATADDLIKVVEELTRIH
T4 sequence (Q13422 whole entry): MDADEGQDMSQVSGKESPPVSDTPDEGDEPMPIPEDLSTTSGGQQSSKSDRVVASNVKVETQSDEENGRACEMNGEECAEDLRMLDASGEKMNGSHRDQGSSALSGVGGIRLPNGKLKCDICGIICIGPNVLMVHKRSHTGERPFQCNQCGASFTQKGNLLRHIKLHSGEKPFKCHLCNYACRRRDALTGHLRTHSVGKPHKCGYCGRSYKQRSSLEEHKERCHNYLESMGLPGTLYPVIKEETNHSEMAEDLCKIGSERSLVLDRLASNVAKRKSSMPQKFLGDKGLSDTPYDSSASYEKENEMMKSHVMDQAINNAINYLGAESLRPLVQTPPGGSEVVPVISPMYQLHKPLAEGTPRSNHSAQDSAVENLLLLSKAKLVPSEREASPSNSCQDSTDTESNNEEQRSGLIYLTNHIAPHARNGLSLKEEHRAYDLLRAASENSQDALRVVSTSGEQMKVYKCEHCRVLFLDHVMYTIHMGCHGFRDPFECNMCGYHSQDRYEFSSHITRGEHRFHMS
T4 sequence (Q96SW2 whole entry): as the sequence (Q96SW2 whole entry) above
T4 sequence (Q16531 whole entry partner): as the sequence (Q16531 whole entry partner) above
T3 sequence (Q9UKS7 whole entry): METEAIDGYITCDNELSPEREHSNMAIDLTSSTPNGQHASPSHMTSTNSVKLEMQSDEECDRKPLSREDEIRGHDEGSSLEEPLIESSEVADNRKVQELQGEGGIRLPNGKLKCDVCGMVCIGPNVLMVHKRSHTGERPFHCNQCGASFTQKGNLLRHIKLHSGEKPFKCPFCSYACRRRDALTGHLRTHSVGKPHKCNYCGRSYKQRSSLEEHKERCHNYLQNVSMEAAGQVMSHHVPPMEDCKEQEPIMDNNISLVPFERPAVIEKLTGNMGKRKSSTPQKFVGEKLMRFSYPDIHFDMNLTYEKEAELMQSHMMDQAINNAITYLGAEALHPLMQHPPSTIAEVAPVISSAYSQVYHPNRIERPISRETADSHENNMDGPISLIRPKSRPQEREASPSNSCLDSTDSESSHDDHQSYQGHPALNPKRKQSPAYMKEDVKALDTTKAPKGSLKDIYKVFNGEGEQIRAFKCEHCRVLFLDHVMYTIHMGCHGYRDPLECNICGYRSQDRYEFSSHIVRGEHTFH
T3 sequence (Q96SW2 whole entry): as the sequence (Q96SW2 whole entry) above
T3 sequence (Q16531 whole entry partner): as the sequence (Q16531 whole entry partner) above
T5 sequence (P15170 whole entry): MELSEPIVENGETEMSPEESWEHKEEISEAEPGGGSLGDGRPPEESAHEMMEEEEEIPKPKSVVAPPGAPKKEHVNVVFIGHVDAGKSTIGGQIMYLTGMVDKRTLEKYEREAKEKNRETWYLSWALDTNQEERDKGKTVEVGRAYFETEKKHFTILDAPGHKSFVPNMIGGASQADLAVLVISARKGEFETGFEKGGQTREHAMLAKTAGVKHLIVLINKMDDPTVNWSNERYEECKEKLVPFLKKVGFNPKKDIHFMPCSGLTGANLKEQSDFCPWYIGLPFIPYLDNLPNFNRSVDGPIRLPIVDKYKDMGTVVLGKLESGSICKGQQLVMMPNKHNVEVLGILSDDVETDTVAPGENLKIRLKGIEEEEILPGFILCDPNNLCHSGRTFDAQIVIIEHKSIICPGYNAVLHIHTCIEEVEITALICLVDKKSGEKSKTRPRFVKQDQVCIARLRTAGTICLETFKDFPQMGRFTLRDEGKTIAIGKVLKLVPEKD
T5 sequence (Q96SW2 whole entry): as the sequence (Q96SW2 whole entry) above
T5 sequence (Q16531 whole entry partner): as the sequence (Q16531 whole entry partner) above
T6 sequence (P30291 whole entry): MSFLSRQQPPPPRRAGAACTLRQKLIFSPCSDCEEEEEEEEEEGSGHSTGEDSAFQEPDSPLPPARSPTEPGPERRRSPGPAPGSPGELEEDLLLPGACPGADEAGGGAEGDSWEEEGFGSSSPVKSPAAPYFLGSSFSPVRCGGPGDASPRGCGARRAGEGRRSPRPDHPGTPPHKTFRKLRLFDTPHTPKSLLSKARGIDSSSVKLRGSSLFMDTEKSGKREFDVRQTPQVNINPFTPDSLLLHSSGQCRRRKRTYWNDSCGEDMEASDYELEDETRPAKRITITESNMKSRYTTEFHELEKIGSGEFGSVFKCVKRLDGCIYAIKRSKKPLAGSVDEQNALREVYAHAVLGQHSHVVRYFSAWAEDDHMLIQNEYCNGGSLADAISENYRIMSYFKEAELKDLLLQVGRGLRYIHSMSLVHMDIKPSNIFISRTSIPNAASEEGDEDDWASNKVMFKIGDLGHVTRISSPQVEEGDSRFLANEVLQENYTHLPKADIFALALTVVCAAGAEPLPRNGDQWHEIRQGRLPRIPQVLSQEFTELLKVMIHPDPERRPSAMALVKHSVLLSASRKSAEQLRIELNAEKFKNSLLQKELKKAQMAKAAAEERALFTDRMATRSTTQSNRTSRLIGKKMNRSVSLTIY
T6 sequence (Q96SW2 whole entry): as the sequence (Q96SW2 whole entry) above
T6 sequence (Q16531 whole entry partner): as the sequence (Q16531 whole entry partner) above

Row | SMILES | CK1α substrate protein remaining % [1] | IKZF3 substrate protein remaining % [2] | IKZF2 substrate protein remaining % [3] | IKZF1 substrate protein remaining % [4] | GSPT1 substrate protein remaining % [5] | WEE1 substrate protein remaining % [6]
1 | O=C1CCN(N2C(=O)c3ccc(CN4CCC(c5ccc(F)cc5)CC4)cc3C2=O)C(=O)N1 [GT-06878, 2-(2,4-dioxotetrahydropyrimidin-1(2H)-yl)-5-((4-(4-fluorophenyl)piperidin-1-yl)methyl)isoindoline-1,3-dione] | A (0% ≤ substrate protein remaining % ≤80%) | B (80%< substrate protein remaining % ≤100%) | B (80%< substrate protein remaining % ≤100%) | B (80%< substrate protein remaining % ≤100%) | A (0% ≤ substrate protein remaining % ≤80%) | B (80%< substrate protein remaining % ≤100%)
2 | O=C1CCN(N2C(=O)c3ccc(CN4CCC(c5ccccc5C(F)(F)F)CC4)cc3C2=O)C(=O)N1 [GT-06879, 2-(2,4-dioxotetrahydropyrimidin-1(2H)-yl)-5-((4-(2-(trifluoromethyl)phenyl)piperidin-1-yl)methyl)isoindoline-1,3-dione] | B (80%< substrate protein remaining % ≤100%) | B (80%< substrate protein remaining % ≤100%) | B (80%< substrate protein remaining % ≤100%) | B (80%< substrate protein remaining % ≤100%) | A (0% ≤ substrate protein remaining % ≤80%) | B (80%< substrate protein remaining % ≤100%)
3 | O=C1CCN(N2C(=O)c3ccc(CN4CCC(c5cccc(C(F)(F)F)c5)CC4)cc3C2=O)C(=O)N1 [GT-06880, 2-(2,4-dioxotetrahydropyrimidin-1(2H)-yl)-5-((4-(3-(trifluoromethyl)phenyl)piperidin-1-yl)methyl)isoindoline-1,3-dione] | B (80%< substrate protein remaining % ≤100%) | B (80%< substrate protein remaining % ≤100%) | B (80%< substrate protein remaining % ≤100%) | B (80%< substrate protein remaining % ≤100%) | B (80%< substrate protein remaining % ≤100%) | A (0% ≤ substrate protein remaining % ≤80%)
4 | Cc1ccc(N2CCN(Cc3ccc4c(c3)CN(N3CCC(=O)NC3=O)C4=O)CC2)c(C)c1 [GT-06882, 1-(5-((4-(2,4-dimethylphenyl)piperazin-1-yl)methyl)-1-oxoisoindolin-2-yl)dihydropyrimidine-2,4(1H,3H)-dione] | B (80%< substrate protein remaining % ≤100%) | B (80%< substrate protein remaining % ≤100%) | B (80%< substrate protein remaining % ≤100%) | A (0% ≤ substrate protein remaining % ≤80%) | A (0% ≤ substrate protein remaining % ≤80%) | A (0% ≤ substrate protein remaining % ≤80%)
5 | Cc1ccc(Cl)cc1N1CCN(Cc2ccc3c(c2)CN(N2CCC(=O)NC2=O)C3=O)CC1 [GT-06883, 1-(5-((4-(5-chloro-2-methylphenyl)piperazin-1-yl)methyl)-1-oxoisoindolin-2-yl)dihydropyrimidine-2,4(1H,3H)-dione] | B (80%< substrate protein remaining % ≤100%) | B (80%< substrate protein remaining % ≤100%) | B (80%< substrate protein remaining % ≤100%) | A (0% ≤ substrate protein remaining % ≤80%) | A (0% ≤ substrate protein remaining % ≤80%) | A (0% ≤ substrate protein remaining % ≤80%)
